Values of other authors in patent publication US9125860B2, “Phosphate free oral care compositions based on magnolia antibacterial agent” (Colgate-Palmolive Company, priority 2010, dated 2015).

Test system: S. mutans, F. nucleatum, V. parvula, A. naslundii, P. gingivitis
Conditions: representative oral bacteria; values not given

Compound | bactericidal properties in MIC test, in words
CCCCc1ccc(O)c(-c2cc(CCCC)ccc2O)c1 [butylmagnolol] | demonstrated bactericidal properties
C=CCc1ccc(O)c(-c2ccc(O)c(CC=C)c2)c1 [honokiol] | demonstrated bactericidal properties
CC(C)c1ccc(O)c(-c2cc(C(C)C)ccc2O)c1 [isopropylmagnolol] | demonstrated bactericidal properties
C=CCc1ccc(O)c(-c2cc(CC=C)ccc2O)c1 [magnolol] | demonstrated bactericidal properties
CCCc1ccc(O)c(-c2ccc(O)c(CCC)c2)c1 [tetrahydrohonokiol] | demonstrated bactericidal properties
CCCc1ccc(O)c(-c2cc(CCC)ccc2O)c1 [tetrahydromagnolol] | demonstrated bactericidal properties
butylhonokiol | demonstrated bactericidal properties
isopropylhonokiol | demonstrated bactericidal properties
propylhonokiol | demonstrated bactericidal properties
propylmagnolol | demonstrated bactericidal properties
